Experimental data taken from patent US20040171566A1, “Antisense modulation of p38 mitogen activated protein kinase expression” (priority 1999, published 2004).
e = 2'-O-(2-methoxyethyl) (MOE); d = 2'-deoxy (DNA)

Assays:
rat p38α mRNA = assay: Rat p38α mRNA levels in NR-8383 cells, quantitative real-time PCR; assay type: cell-based; conditions: 300 nM oligonucleotide with FuGENE 6, 24 hours, mRNA by quantitative real-time PCR, average of two experiments
From the text: (§1) Quantitation of p38α mRNA levels was accomplished by real-time quantitative PCR using the ABI PRISM™ 7600, 7700, or 7900 Sequence Detection System (PE-Applied Biosystems, Foster City, Calif.) according to manufacturer's instructions. This is a closed-tube, non-gel-based, fluorescence detection system which allows high-throughput quantitation of polymerase chain reaction (PCR) products in real-time. As opposed to standard PCR in which amplification products are quantitated after the PCR is completed, products in real-time quantitative PCR are quantitated as they accumulate. This is accomplished by including in the PCR reaction an oligonucleotide probe that anneals specifically between the forward and reverse PCR primers, and contains two fluorescent dyes. A reporter dye (e.g., FAM or JOE, obtained from either PE-Applied Biosystems, Foster City, Calif., Operon Technologies Inc., Alameda, Calif. or Integrated DNA Technologies Inc., Coralville, Iowa) is attached to the 5′ end of the probe and a quencher dye (e.g., TAMRA, obtained from either PE-Applied Biosystems, Foster City, Calif., Operon Technologies Inc., Alameda, Calif. or Integrated DNA Technologies Inc., Coralville, Iowa) is attached to the 3′ end of the probe. When the probe and dyes are intact, reporter dye emission is quenched by the proximity of the 3′ quencher dye. During amplification, annealing of the probe to the target sequence creates a substrate that can be cleaved by the 5′-exonuclease activity of Taq polymerase. […] With each cycle, additional reporter dye molecules are cleaved from their respective probes, and the fluorescence intensity is monitored at regular intervals by laser optics built into the ABI PRISM™ Sequence Detection System. In each assay, a series of parallel reactions containing serial dilutions of mRNA from untreated control samples generates a standard curve that is used to quantitate the percent inhibition after antisense oligonucleotide treatment of test samples.
(§2) Prior to quantitative PCR analysis, primer-probe sets specific to the target gene being measured are evaluated for their ability to be “multiplexed” with a GAPDH amplification reaction. In multiplexing, both the target gene and the internal standard gene GAPDH are amplified concurrently in a single sample. In this analysis, mRNA isolated from untreated cells is serially diluted. Each dilution is amplified in the presence of primer-probe sets specific for GAPDH only, target gene only (“single-plexing”), or both (multiplexing). Following PCR amplification, standard curves of GAPDH and target mRNA signal as a function of dilution are generated from both the single-plexed and multiplexed samples. If both the slope and correlation coefficient of the GAPDH and target signals generated from the multiplexed samples fall within 10% of their corresponding values generated from the single-plexed samples, the primer-probe set specific for that target is deemed multiplexable. Other methods of PCR are also known in the art.
(§3) PCR reagents were obtained from Invitrogen Corporation, (Carlsbad, Calif.). […] The RT reaction was carried out by incubation for 30 minutes at 48° C. Following a 10 minute incubation at 95° C. to activate the PLATINUM® Taq, 40 cycles of a two-step PCR protocol were carried out: 95° C. for 15 seconds (denaturation) followed by 60° C. for 1.5 minutes (annealing/extension).
(§4) Gene target quantities obtained by real time RT-PCR are normalized using either the expression level of GAPDH, a gene whose expression is constant, or by quantifying total RNA using RiboGreen™ (Molecular Probes, Inc. Eugene, Oreg.). GAPDH expression is quantified by real time RT-PCR, by being run simultaneously with the target, multiplexing, or separately. Total RNA is quantified using RiboGreen™ RNA quantification reagent (Molecular Probes, Inc. Eugene, Oreg.). Methods of RNA quantification by RiboGreen™ are taught in Jones, L. J., et al, (Analytical Biochemistry, 1998, 265, 368-374). […]

mouse p38α mRNA = assay: Mouse p38α mRNA levels in bEND.3 cells, quantitative real-time PCR; assay type: cell-based; parameters: % Inhib. mouse p38α: concentration or dose not given beside the values; conditions: bEND.3 cells, mRNA by quantitative real-time PCR, average of two experiments
From the text: as §1, §2, §3, §4

Substance | % Inhib. rat p38α (rat p38α mRNA) [%] | % Inhib. mouse p38α (mouse p38α mRNA) [%]
320144 (antisense CCTTTTAAGGCACAAACAGA; sugars from the 5' end e5 d10 e5, all phosphorothioate, methylation of C not given here) [compound 320144] | 39 | 83
320143 (antisense AGGCACAAACAGACTGACAG; sugars from the 5' end e5 d10 e5, all phosphorothioate, methylation of C not given here) [compound 320143] | 54 | 88
320165 (antisense TGCCTCATGGCTTGGCATCC; sugars from the 5' end e5 d10 e5, all phosphorothioate, methylation of C not given here) [compound 320165] | 53 | 81
320137 (antisense CACACACATCCCTAAGGAGA; sugars from the 5' end e5 d10 e5, all phosphorothioate, methylation of C not given here) [compound 320137] | 44 | 80
320163 (antisense TGTTAATGAGATAAGCAGGG; sugars from the 5' end e5 d10 e5, all phosphorothioate, methylation of C not given here) [compound 320163] | 40 | 0
320117 (antisense GGAGATTTTCTTCAGAAGCT; sugars from the 5' end e5 d10 e5, all phosphorothioate, methylation of C not given here) [compound 320117] | 55 | 72
320170 (antisense TGCTGGCTATACACAGACAC; sugars from the 5' end e5 d10 e5, all phosphorothioate, methylation of C not given here) [compound 320170] | 55 | 83
320139 (antisense GCAGCCTCTCTCTGTCACTG; sugars from the 5' end e5 d10 e5, all phosphorothioate, methylation of C not given here) [compound 320139] | 61 | 87
320111 (antisense GTCAACAGCTCAGCCATGAT; sugars from the 5' end e5 d10 e5, all phosphorothioate, methylation of C not given here) [compound 320111] | 55 | 86
320123 (antisense CAATAAATACATTTGCGAAG; sugars from the 5' end e5 d10 e5, all phosphorothioate, methylation of C not given here) [compound 320123] | 32 | 79
320105 (antisense CCCGTCTTTGTATCAAAAGC; sugars from the 5' end e5 d10 e5, all phosphorothioate, methylation of C not given here) [compound 320105] | 59 | 89
320156 (antisense GGAATTGGCTTTACACTTTC; sugars from the 5' end e5 d10 e5, all phosphorothioate, methylation of C not given here) [compound 320156] | 64 | 91
320115 (antisense GGGTTCCAACGAGTCTTAAA; sugars from the 5' end e5 d10 e5, all phosphorothioate, methylation of C not given here) [compound 320115] | 53 | 67
320142 (antisense GAGCCAGTTGGTTCTCTTGG; sugars from the 5' end e5 d10 e5, all phosphorothioate, methylation of C not given here) [compound 320142] | 53 | 85
320133 (antisense ACTTGAATGGTATTTGGAGA; sugars from the 5' end e5 d10 e5, all phosphorothioate, methylation of C not given here) [compound 320133] | 61 | 52
320171 (antisense TGGAAAACTGTTTTGTCAAA; sugars from the 5' end e5 d10 e5, all phosphorothioate, methylation of C not given here) [compound 320171] | 2 | 35
320148 (antisense CCAGGGCTTCCAGAAGACAG; sugars from the 5' end e5 d10 e5, all phosphorothioate, methylation of C not given here) [compound 320148] | 33 | 78
320151 (antisense GAAGGAACCACACTCTCTAA; sugars from the 5' end e5 d10 e5, all phosphorothioate, methylation of C not given here) [compound 320151] | 47 | 90
320140 (antisense GGGATAGCCTCAGACCTGAA; sugars from the 5' end e5 d10 e5, all phosphorothioate, methylation of C not given here) [compound 320140] | 37 | 61
